Assay results as given in PubChem BioAssay (NCI).
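Each compound was tested at five concentrations against cells in 96-well plates for 48 hours. TGI is the concentration that stops growth completely.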

Tests used:
Test in all cases: NCI tumour cell line growth inhibition, 48 h
SF-268 CNS = tested on: SF-268 CNS
NCI-H460 lung = tested on: NCI-H460 lung
DU-145 prostate = tested on: DU-145 prostate
HCT-15 colon = tested on: HCT-15 colon
SR leukemia = tested on: SR leukemia
OVCAR-3 ovarian = tested on: OVCAR-3 ovarian
A549 NSCLC = tested on: A549 NSCLC
OVCAR-5 ovarian = tested on: OVCAR-5 ovarian
A498 renal = tested on: A498 renal
MALME-3M melanoma = tested on: MALME-3M melanoma
RXF 393 renal = tested on: RXF 393 renal
MOLT-4 leukemia = tested on: MOLT-4 leukemia
M14 melanoma = tested on: M14 melanoma
SF-539 CNS = tested on: SF-539 CNS
EKVX NSCLC = tested on: EKVX NSCLC
HOP-62 NSCLC = tested on: HOP-62 NSCLC
HOP-92 NSCLC = tested on: HOP-92 NSCLC
MCF7 breast = tested on: MCF7 breast
K-562 leukemia = tested on: K-562 leukemia
LOX IMVI melanoma = tested on: LOX IMVI melanoma
SK-MEL-2 melanoma = tested on: SK-MEL-2 melanoma
CCRF-CEM leukemia = tested on: CCRF-CEM leukemia
SN12C renal = tested on: SN12C renal
MDA-MB-435 = tested on: MDA-MB-435
KM12 colon = tested on: KM12 colon
HCC-2998 colon = tested on: HCC-2998 colon
OVCAR-8 ovarian = tested on: OVCAR-8 ovarian
HCT-116 colon = tested on: HCT-116 colon
HT29 colon = tested on: HT29 colon
SNB-75 CNS = tested on: SNB-75 CNS
SNB-19 CNS = tested on: SNB-19 CNS
SK-MEL-5 melanoma = tested on: SK-MEL-5 melanoma
UACC-62 melanoma = tested on: UACC-62 melanoma
TK-10 renal = tested on: TK-10 renal
NCI-H522 lung = tested on: NCI-H522 lung
MDA-N = tested on: MDA-N
SW-620 colon = tested on: SW-620 colon
U251 CNS = tested on: U251 CNS
PC-3 prostate = tested on: PC-3 prostate
SK-MEL-28 melanoma = tested on: SK-MEL-28 melanoma
NCI-H226 lung = tested on: NCI-H226 lung
OVCAR-4 ovarian = tested on: OVCAR-4 ovarian
HS 578T breast = tested on: HS 578T breast
NCI/ADR-RES ovarian = tested on: NCI/ADR-RES ovarian
RPMI-8226 leukemia = tested on: RPMI-8226 leukemia
HL-60(TB) leukemia = tested on: HL-60(TB) leukemia
CAKI-1 renal = tested on: CAKI-1 renal
ACHN renal = tested on: ACHN renal
UO-31 renal = tested on: UO-31 renal
COLO 205 colon = tested on: COLO 205 colon
NCI-H23 lung = tested on: NCI-H23 lung
786-0 renal = tested on: 786-0 renal
BT-549 breast = tested on: BT-549 breast
SK-OV-3 ovarian = tested on: SK-OV-3 ovarian
SF-295 CNS = tested on: SF-295 CNS
T-47D breast = tested on: T-47D breast
IGROV1 ovarian = tested on: IGROV1 ovarian
UACC-257 melanoma = tested on: UACC-257 melanoma
MDA-MB-231 breast = tested on: MDA-MB-231 breast

Measured: TGI

O=C1CC(=O)c2c(N3CCCC3)sc(N3CCCC3)c21
> 100 µM: SF-268 CNS | NCI-H460 lung | DU-145 prostate | HCT-15 colon | SR leukemia | OVCAR-3 ovarian | A549 NSCLC | OVCAR-5 ovarian | A498 renal | MALME-3M melanoma | RXF 393 renal | MOLT-4 leukemia | M14 melanoma | SF-539 CNS | EKVX NSCLC | HOP-62 NSCLC | HOP-92 NSCLC | MCF7 breast | K-562 leukemia | LOX IMVI melanoma | SK-MEL-2 melanoma | CCRF-CEM leukemia | SN12C renal | MDA-MB-435 | KM12 colon | HCC-2998 colon | OVCAR-8 ovarian | HCT-116 colon | HT29 colon | SNB-75 CNS | SNB-19 CNS | SK-MEL-5 melanoma | UACC-62 melanoma | TK-10 renal | NCI-H522 lung | MDA-N | SW-620 colon | U251 CNS | PC-3 prostate | SK-MEL-28 melanoma | NCI-H226 lung | OVCAR-4 ovarian | HS 578T breast | NCI/ADR-RES ovarian | RPMI-8226 leukemia | HL-60(TB) leukemia | CAKI-1 renal | ACHN renal | UO-31 renal | COLO 205 colon | NCI-H23 lung | 786-0 renal | BT-549 breast | SK-OV-3 ovarian | SF-295 CNS | T-47D breast | IGROV1 ovarian | UACC-257 melanoma

CC1(C)OC(C(C)(C)O)C(C(C)(C)O)O1 (stereo not drawn)
> 100 µM: SF-268 CNS | NCI-H460 lung | DU-145 prostate | HCT-15 colon | SR leukemia | A549 NSCLC | OVCAR-5 ovarian | MALME-3M melanoma | RXF 393 renal | MOLT-4 leukemia | M14 melanoma | SF-539 CNS | EKVX NSCLC | HOP-62 NSCLC | MCF7 breast | K-562 leukemia | LOX IMVI melanoma | SK-MEL-2 melanoma | CCRF-CEM leukemia | SN12C renal | KM12 colon | HCC-2998 colon | OVCAR-8 ovarian | HCT-116 colon | HT29 colon | SNB-75 CNS | SNB-19 CNS | SK-MEL-5 melanoma | UACC-62 melanoma | TK-10 renal | NCI-H522 lung | MDA-N | SW-620 colon | U251 CNS | MDA-MB-231 breast | PC-3 prostate | SK-MEL-28 melanoma | NCI-H226 lung | OVCAR-4 ovarian | HS 578T breast | NCI/ADR-RES ovarian | RPMI-8226 leukemia | HL-60(TB) leukemia | CAKI-1 renal | ACHN renal | UO-31 renal | COLO 205 colon | NCI-H23 lung | 786-0 renal | BT-549 breast | SK-OV-3 ovarian | SF-295 CNS | T-47D breast | IGROV1 ovarian | UACC-257 melanoma
